Data from patent publication US4432993A, “Method of treating obesity hyperglycemia, inflammation and platelet aggregation” (priority 1980, dated 1984).

Legend:
genetically obese mice = assay: Anti-obesity activity: carcass lipid in genetically obese mice; assay type: in vivo
Method: The compounds were administered by oral gavage in water or carboxymethyl-cellulose suspension to genetically obese mice daily for 28 days. At the end of the time the carcass composition was determined.

[1] = test system: inflammation induced in the rat ear by croton oil; assay: Anti-inflammatory activity: croton oil induced inflammation of the rat ear; assay type: in vivo; details: 2.0 mg/RAT EAR, 6 hours; activity = significant (5% level) reduction in ear weight vs non-drug treated control
Method: The method used is based on that described by G. Tonelli et al (Endocrinology, 77, 625-634, 1965). An inflammation is induced in the rat ear by the application of 50 μl of a 1% solution of croton oil in tetrahydrofuran, test compounds being dissolved in the irritant vehicle. After 6 hours the inflammation is assessed by killing the animals and weighing the ears. Topical anti-inflammatory activity of a compound is generally considered to be shown when a significant (5% level) reduction in ear weight is seen compared to non-drug treated control.

[2] = test system: Blood platelet response to collagen; assay: Platelet aggregation inhibition activity (collagen-induced fall in blood platelet concentration); assay type: in vivo, Male CFLP mice; details: 2 h after p.o. dose; collagen 400 μg/kg i.v.; Aspirin 600 μmol (108 mg)/kg, p < 0.05; Example 3 5 μmol (1.92 mg)/kg, p = 0.01
Method: Male CFLP mice (ca 20 g, n=8) were dosed orally with compound or vehicle (controls) after an overnight fast. Two hours later each mouse received an intravenous dose of collagen (400 μg/kg, pH 6-6.6). Exactly 30 sec. after injection of collagen, each mouse was placed in a chamber of CO2 until respiration ceased. […] Each concentration was expressed as a percent of that obtained in a tail blood sample taken immediately before injection of collagen.

[3] = p.o. daily for 28 days, Ex. 5 mp 102-5: 4.8 mg/kg, control 21.10, Ex. 10: 8.6 mg/kg, control 23.13

SMILES | g LIPID/MOUSE, TREATED (genetically obese mice; [3]) | % Inhibition of response to collagen [2] | also measured
Cc1ccc(CCCNCC(O)c2cc3ccccc3o2)cc1 (stereo not drawn) [Example 10, N-[3-(4-Methylphenyl)propyl]-2-(2-benzofuranyl)-2-hydroxyethanamine] | 19.72 g LIPID/MOUSE | – | –
Cc1ccc(CC(C)NCC(O)c2cc3ccccc3o2)cc1 (stereo not drawn) [Example 1, N-[2-(4-Methylphenyl)-1-methylethyl]-2-(2-benzofuranyl)-2-hydroxy ethanamine] | – | – | g LIPID/MOUSE, TREATED (genetically obese mice; 4.8 mg/kg p.o. daily, 15 days only, control 16.25): 13.36 g LIPID/MOUSE
Cc1ccc(C[C@@H](C)NC[C@@H](O)c2cc3ccccc3o2)cc1 (relative stereo) [Example 5 mp 102-5, N-[2-(4-methylphenyl)-1-methylethyl]-2-(2-benzofuranyl)-2-hydroxyethanamine] | 16.16 g LIPID/MOUSE | – | ACTIVITY (topical anti-inflammatory) [1]: Active
COC(=O)COc1ccc(CC(C)NCC(O)c2cc3ccccc3o2)cc1 (stereo not drawn) [Example 3, N-[2-(4-Carbomethoxymethoxyphenyl)-1-methylethyl]-2-(2-benzofuranyl)-2-hydroxyethanamine] | – | 29% | –
CC(=O)Oc1ccccc1C(=O)O [Aspirin, reference compound] | – | 29% | –
